# Laboratory results from patent US20210346357A1 (priority 2020, published 2021).
# Columns and labels:
# Abl1 = Abl1 (Homo sapiens, UniProt P00519); test: Biochemical ABL1 kinase assay (33P-ATP); conditions: read-out: inhibition in the Abl1 assay
# Abl2 = Abl2 (Homo sapiens, UniProt P42684); test: biochemical; conditions: read-out: inhibition in the Abl2 assay
# Sequence of Abl2 (P42684 whole entry): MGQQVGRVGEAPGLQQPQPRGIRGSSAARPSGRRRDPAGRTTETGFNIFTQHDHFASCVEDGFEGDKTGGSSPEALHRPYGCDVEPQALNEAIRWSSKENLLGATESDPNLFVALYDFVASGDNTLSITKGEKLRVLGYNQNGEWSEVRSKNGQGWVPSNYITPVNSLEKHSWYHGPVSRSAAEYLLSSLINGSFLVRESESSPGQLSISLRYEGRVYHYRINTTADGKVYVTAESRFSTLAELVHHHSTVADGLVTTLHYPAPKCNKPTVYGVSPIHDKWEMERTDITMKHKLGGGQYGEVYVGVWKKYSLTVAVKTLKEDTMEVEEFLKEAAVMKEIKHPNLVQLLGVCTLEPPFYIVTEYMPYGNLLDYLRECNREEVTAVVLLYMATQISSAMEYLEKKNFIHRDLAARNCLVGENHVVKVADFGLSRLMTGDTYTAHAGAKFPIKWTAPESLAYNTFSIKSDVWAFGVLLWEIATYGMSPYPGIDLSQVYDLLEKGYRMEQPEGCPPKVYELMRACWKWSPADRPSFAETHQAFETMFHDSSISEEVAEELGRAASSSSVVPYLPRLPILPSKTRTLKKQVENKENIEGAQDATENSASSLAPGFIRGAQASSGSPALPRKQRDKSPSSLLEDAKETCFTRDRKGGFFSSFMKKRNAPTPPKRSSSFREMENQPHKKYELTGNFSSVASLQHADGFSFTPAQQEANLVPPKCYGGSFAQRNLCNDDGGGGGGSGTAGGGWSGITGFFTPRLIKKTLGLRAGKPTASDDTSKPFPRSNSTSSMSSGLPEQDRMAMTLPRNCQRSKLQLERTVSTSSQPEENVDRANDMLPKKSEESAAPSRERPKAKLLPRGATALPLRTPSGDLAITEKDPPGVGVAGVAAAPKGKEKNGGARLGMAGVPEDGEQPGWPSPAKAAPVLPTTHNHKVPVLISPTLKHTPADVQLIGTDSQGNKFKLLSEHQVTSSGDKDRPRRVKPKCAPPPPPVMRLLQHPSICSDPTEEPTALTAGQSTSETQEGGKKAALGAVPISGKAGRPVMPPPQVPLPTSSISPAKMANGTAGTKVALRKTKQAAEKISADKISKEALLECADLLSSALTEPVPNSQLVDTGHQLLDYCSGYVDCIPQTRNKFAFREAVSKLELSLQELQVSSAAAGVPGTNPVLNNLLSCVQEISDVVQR
# Sequence of Abl1 (P00519 whole entry): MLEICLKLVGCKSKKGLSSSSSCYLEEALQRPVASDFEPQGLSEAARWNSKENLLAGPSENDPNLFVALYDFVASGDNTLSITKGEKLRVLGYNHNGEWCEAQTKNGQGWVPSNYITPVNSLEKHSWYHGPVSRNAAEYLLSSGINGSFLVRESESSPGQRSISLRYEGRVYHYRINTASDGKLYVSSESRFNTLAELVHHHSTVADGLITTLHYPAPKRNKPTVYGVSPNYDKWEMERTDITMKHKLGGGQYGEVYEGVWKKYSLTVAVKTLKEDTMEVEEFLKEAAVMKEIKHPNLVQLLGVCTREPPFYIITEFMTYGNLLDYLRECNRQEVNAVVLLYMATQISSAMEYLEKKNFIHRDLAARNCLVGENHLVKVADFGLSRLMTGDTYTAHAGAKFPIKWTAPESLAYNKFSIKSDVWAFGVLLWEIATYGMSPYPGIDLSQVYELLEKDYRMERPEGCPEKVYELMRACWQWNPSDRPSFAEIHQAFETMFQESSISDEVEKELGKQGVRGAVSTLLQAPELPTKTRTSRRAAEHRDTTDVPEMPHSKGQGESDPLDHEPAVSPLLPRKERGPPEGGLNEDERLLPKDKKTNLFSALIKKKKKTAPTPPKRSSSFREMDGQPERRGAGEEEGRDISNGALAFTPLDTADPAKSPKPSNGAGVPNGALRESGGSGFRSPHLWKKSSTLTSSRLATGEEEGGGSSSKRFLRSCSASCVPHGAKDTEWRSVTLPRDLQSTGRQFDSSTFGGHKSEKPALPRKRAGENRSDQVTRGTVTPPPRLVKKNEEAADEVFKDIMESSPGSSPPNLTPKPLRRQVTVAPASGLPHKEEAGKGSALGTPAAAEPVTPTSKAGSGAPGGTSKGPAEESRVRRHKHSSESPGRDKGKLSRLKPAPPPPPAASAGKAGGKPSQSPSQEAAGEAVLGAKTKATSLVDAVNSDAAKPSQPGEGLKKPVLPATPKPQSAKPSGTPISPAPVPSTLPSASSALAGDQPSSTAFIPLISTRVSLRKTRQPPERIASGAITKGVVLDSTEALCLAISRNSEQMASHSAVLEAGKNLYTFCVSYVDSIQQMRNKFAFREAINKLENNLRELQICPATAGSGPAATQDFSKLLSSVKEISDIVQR
compound,measurement,setting,value
"CCS(=O)(=O)N1CC(CC#N)(n2cc(-c3ncnc4[nH]ccc34)cn2)C1 [baricitinib, reference compound]",inhibition at 10 µM,Abl1,80%
same,inhibition at 10 µM,Abl2,35%
